According to patent publication US7119229B2 (priority 2001, dated 2006):
Read-outs that look alike come from different tables or passages of the source.

Experiments:
XF-498 (human CNS) = assay: SRB cytotoxicity assay, XF498; type: cell-based; conditions: 72 hours, read-out: ED50 XF498
Method: Human tumor cells, including MCF-7 (human breast adenomatous tumor), MCF-7/DOX (adriamycin resistant cell strain), MRS-SA (human uterine sarcoma), MES-SA/DX5 (adriamycin resistant cell strain), A 549 (human non-small cell lung), SKOV-3 (human ovarian), SKMEL-2 (human melanoma), XF-498 (human CNS), HCT-15 (human colon) were incubated at 37° C. in the presence of 5% CO2 using a DMEM culture medium. The respective cells were seeded into each well of 96-well plates at a concentration of 2×10^3˜5×10^3 cells/well. […] Each cell line of the resultant plates was fixed with trichloroacetic acid (TCA), stained with 0.4% SRB solution and rinsed with 1% acetic acid. Thereafter, the dye was dissolved in 10 mM Tris base to measure the optical density (OD) at 520 nm.

TA100 = test system: TA100
Method: (§1) This assay is carried out to test mutagenicity of chemical substances using histidine auxotrophic strains that are one of Salmonella Typhimurium mutants. […] When various mutagens are added to the culture medium, only revertants generated by reverse mutation survive.
(§2) Ames test was carried out using […]. […] After incubation, the number of revertant colonies was counted. 3 plates were prepared for each test and the average was calculated.

TA1535 = conditions: TA1525 (so in the source)
Method: as §1, §2

COc1cc2c(c(OC)c1OC)-c1ccc(OC)c(=O)cc1[C@@H](NC(=O)c1cccc(CO[N+](=O)[O-])c1)CC2 [Compound 6, 3-nitrooxymethyl-N-(1,2,3,10-tetramethoxy-9-oxo-5,6,7,9-tetrahydro-benzo[a]heptarene-7-yl)-benzamide]
EC50 (XF-498 (human CNS)): 0.1 nM
Colony/Plate S-9 Mixture (+) (TA100; TA100, 317.5 μg/Plate): 96 Colony/Plate
Colony/Plate S-9 Mixture (−) (TA100; TA100, 317.5 μg/Plate): 81 Colony/Plate
Colony/Plate S-9 Mixture (+) (TA100; TA100, 625 μg/Plate): 84 Colony/Plate
Colony/Plate S-9 Mixture (−) (TA100; TA100, 625 μg/Plate): 77 Colony/Plate
Colony/Plate S-9 Mixture (+) (TA100; TA100, 1250 μg/Plate): 81 Colony/Plate
Colony/Plate S-9 Mixture (−) (TA100; TA100, 1250 μg/Plate): 84 Colony/Plate
Colony/Plate S-9 Mixture (+) (TA100; TA100, 2500 μg/Plate): 77 Colony/Plate
Colony/Plate S-9 Mixture (−) (TA100; TA100, 2500 μg/Plate): 88 Colony/Plate
Colony/Plate S-9 Mixture (+) (TA100; TA100, 5000 μg/Plate): 78 Colony/Plate
Colony/Plate S-9 Mixture (−) (TA100; TA100, 5000 μg/Plate): 79 Colony/Plate
Colony/Plate S-9 Mixture (+) (TA1535; 317.5 μg/Plate): 14 Colony/Plate
Colony/Plate S-9 Mixture (−) (TA1535; 317.5 μg/Plate): 14 Colony/Plate
Colony/Plate S-9 Mixture (+) (TA1535; 625 μg/Plate): 12 Colony/Plate
Colony/Plate S-9 Mixture (−) (TA1535; 625 μg/Plate): 18 Colony/Plate
Colony/Plate S-9 Mixture (+) (TA1535; 1250 μg/Plate): 11 Colony/Plate
Colony/Plate S-9 Mixture (−) (TA1535; 1250 μg/Plate): 15 Colony/Plate
Colony/Plate S-9 Mixture (+) (TA1535; 2500 μg/Plate): 11 Colony/Plate
Colony/Plate S-9 Mixture (−) (TA1535; 2500 μg/Plate): 10 Colony/Plate
Colony/Plate S-9 Mixture (+) (TA1535; 5000 μg/Plate): 9 Colony/Plate
Colony/Plate S-9 Mixture (−) (TA1535; 5000 μg/Plate): 13 Colony/Plate
